Laboratory results taken from patent US20250092017A1, “2-PIPERIDYL OR 2-PYRAZOLYL SUBSTITUTED PYRIMIDINE COMPOUND SERVING AS EGFR INHIBITOR” (SUZHOU PUHE BIOPHARMA CO., LTD., priority 2022, published 2025).

Columns and labels:
EGFR (L858R) = EGFR (L858R) (Homo sapiens, UniProt P00533, L858R); experiment: MSA (Mobility Shift Assay) kinase activity, EGFR-L858R; assay type: biochemical
Method: The MSA (Mobility Shift Assay) method was used to detect the effects of small molecule inhibitors on the kinase activity of EGFR wild type and its mutants (EGFR^wt, EGFR-L858R, EGFR-L858R-T790M-C797S, EGFR-L858R-C797S).
10 μL of kinase solution at 2.5 times the final concentration was added to the compound wells and positive control Max wells; 10 μL of 1x kinase buffer was added to the negative control Min wells. The mixture was centrifuged at 1000 rpm for 30 seconds, and the reaction plate was shaken to mix the solution well and then incubated at room temperature for 10 minutes. A mixed solution of ATP and kinase substrate at 5/3 times the final concentration was prepared in 1x kinase buffer. 15 μL of a mixed solution of ATP and substrate at 5/3 times the final concentration was added to initiate the reaction. The 384-well plate was centrifuged at 1000 rpm for 30 seconds, and shaken to mix the solution well and then incubated at room temperature for the corresponding time. 30 μL of stop detection solution was added to stop the kinase reaction, and the mixture was centrifuged at 1000 rpm for 30 seconds, and then to mixed well by shaking. The conversion rate was read using Caliper EZ Reader.
wherein: Conversion %_sample is the conversion rate reading of the sample; Conversion %_min is the mean of the negative control wells, representing the conversion rate reading of the wells without enzyme activity; Conversion %_max is the mean of the positive control wells, representing the conversion rate reading of the wells without compound inhibition.
The log (inhibitor) vs. response —Variable slope of the analysis software GraphPad Prism 5 was used to fit the dose-effect curve, where the log value of the concentration was used as the X-axis and the percentage inhibition rate was used as the Y-axis, to obtain the IC50 value of each compound on the enzyme activity.
The calculation formula is Y=Bottom+(Top-Bottom)/(1+10^((Log IC50−X)*Hill Slope))

[1] = target: Ba/F3-FL-EGFR-L858R-T790M-C797S (Homo sapiens, UniProt P00533, T790M/C797S/L858R, cells depend on it); experiment: CellTiter-Glo proliferation, Ba/F3-FL-EGFR-L858R-T790M-C797S; assay type: cell-based; settings: 72 hours, read-out: Ba/F3-FL-EGFR-L858R-T790M-C797S IC50/nM
Chain of Ba/F3-FL-EGFR-L858R-T790M-C797S (P00533 whole entry T790M/C797S/L858R): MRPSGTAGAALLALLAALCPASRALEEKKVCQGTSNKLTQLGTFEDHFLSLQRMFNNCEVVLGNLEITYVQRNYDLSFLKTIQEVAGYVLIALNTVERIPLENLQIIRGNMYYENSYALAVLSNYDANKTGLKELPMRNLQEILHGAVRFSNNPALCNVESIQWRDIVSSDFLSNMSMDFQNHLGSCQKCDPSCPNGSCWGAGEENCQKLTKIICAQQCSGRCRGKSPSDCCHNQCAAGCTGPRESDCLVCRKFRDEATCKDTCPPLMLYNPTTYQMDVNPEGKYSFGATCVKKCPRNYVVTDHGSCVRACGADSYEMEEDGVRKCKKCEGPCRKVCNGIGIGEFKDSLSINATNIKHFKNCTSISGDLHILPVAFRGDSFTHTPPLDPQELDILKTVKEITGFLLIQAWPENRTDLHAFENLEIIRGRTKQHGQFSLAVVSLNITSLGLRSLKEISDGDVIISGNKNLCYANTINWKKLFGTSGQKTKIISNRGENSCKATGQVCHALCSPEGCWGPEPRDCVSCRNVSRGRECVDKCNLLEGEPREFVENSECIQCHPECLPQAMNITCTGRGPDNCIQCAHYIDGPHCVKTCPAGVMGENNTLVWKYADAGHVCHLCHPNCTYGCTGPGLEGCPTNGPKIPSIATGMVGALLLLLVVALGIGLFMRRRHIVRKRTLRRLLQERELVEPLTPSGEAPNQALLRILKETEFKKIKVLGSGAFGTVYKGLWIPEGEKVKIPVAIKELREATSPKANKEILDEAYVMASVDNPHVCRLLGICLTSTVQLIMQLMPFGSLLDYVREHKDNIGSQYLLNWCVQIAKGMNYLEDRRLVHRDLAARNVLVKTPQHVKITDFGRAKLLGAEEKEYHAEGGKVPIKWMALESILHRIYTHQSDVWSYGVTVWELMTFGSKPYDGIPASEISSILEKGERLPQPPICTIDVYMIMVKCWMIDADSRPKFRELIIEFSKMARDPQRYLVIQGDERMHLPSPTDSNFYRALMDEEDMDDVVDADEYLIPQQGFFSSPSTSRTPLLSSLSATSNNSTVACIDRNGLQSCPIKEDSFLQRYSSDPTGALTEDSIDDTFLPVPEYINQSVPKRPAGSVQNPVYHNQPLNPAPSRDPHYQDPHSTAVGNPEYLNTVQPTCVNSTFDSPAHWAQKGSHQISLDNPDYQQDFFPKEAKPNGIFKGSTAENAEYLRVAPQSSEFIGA
Summary of the method: (§1)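 Ba/F3 lines dependent on the indicated EGFR variants were treated with compounds at a final DMSO concentration of 0.1% at 37 °C, 5% CO2. Viability was read by CellTiter-Glo luminescence, and inhibition rate was normalised to DMSO-treated cells (max) and medium-only wells (min). IC50 came from inhibition curves.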

[2] = target: Ba/F3-FL-EGFR-del19-T790M-C797S (Homo sapiens, UniProt P00533, DEL746-750/T790M/C797S, cells depend on it); experiment: CellTiter-Glo proliferation, Ba/F3-FL-EGFR-del19-T790M-C797S; assay type: cell-based; settings: 72 hours, read-out: Ba/F3-FL-EGFR-del19-T790M-C797S IC50/nM
Chain of Ba/F3-FL-EGFR-del19-T790M-C797S (P00533 with tags, fused parts or gaps DEL746-750/T790M/C797S): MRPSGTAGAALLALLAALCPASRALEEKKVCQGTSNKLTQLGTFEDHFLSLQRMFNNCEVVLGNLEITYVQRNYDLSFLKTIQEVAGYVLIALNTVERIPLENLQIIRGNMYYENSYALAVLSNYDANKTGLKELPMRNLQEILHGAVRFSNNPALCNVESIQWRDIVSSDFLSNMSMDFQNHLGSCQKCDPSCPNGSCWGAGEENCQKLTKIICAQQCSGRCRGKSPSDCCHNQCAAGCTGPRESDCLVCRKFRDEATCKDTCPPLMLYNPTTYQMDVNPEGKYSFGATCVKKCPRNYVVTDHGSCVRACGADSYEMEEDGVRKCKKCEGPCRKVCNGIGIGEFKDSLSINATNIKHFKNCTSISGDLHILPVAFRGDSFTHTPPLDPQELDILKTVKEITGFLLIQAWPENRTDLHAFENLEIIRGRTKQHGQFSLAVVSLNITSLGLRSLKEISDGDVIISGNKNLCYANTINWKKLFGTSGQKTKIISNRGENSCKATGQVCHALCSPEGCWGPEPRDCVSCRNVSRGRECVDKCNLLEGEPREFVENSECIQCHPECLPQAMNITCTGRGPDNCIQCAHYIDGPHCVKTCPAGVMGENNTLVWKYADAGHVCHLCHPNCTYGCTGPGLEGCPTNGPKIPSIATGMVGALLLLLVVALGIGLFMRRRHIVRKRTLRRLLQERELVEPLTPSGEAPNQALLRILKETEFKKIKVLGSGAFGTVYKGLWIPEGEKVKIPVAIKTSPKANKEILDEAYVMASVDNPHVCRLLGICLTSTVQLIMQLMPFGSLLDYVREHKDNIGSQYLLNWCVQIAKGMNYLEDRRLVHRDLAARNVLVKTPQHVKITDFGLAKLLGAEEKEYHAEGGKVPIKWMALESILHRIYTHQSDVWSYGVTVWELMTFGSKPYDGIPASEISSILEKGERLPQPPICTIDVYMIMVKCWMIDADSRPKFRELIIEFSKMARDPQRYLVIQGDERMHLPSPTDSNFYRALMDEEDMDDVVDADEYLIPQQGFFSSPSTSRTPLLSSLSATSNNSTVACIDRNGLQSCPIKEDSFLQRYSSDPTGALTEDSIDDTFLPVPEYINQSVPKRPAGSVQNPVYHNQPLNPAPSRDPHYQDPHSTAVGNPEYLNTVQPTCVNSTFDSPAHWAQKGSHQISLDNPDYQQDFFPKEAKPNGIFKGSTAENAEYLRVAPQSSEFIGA
Method: Promega CellTiter-Glo reagent was used to detect the effects of small molecule inhibitors on the proliferation of three Ba/F3 cell lines (Ba/F3-FL-EGFR-de119, Ba/F3-FL-EGFR-de119-T790M, Ba/F3-FL-EGFR-de119-T790M-C797S).
The cell lines were cultured in an incubator at 37° C. and 5% CO2. Cells were passaged regularly and cells in the logarithmic phase were used for plating. 95 μL of cell suspension was added to each well of the cell plate, and culture medium without cells (containing 0.1% DMSO) was added to the Min control wells. Substance addition for compound detection cell plate: 5 μL of 20× compound working solution was added to the cell culture plate. 5 μL of DMSO-cell culture medium mixture was added to the Max control, with the final DMSO concentration of 0.1%. 5 μL of DMSO-cell culture medium mixture was added to the Max control. The final DMSO concentration was 0.1%.
Cell viability was detected by CellTiter-Glo luminescence assay. Data analysis:
The cell proliferation inhibition rate (Inhibition Rate) data was processed using the following formula: […]
wherein: RLUDrug represents the relative luminescence unit of the cells with the addition of drug, RLUMin represents the luminescence unit of the culture medium, and RLUMax represents the relative luminescence unit of the cells with the addition of DMSO.
The inhibition rates corresponding to different concentrations of compounds were calculated in EXCEL, and then the inhibition rate curve was plotted using GraphPad Prism software and related parameters including the maximum and minimum inhibition rates of cells and IC50 values were calculated.

Ba/F3-FL-EGFR-L858R = Ba/F3-FL-EGFR-L858R (Homo sapiens, UniProt P00533, L858R, cells depend on it); experiment: CellTiter-Glo proliferation, Ba/F3-FL-EGFR-L858R; assay type: cell-based; settings: 72 hours, read-out: Ba/F3-FL-EGFR-L858R IC50/nM
Summary of the method: as §1

EGFR (wild-type) = EGFR (wild-type) (Homo sapiens, UniProt P00533); experiment: MSA (Mobility Shift Assay) kinase activity, EGFR wild type; assay type: biochemical; settings: read-out: EGFR wt/ IC50/nM
Chain of EGFR (wild-type) (P00533 25-1210): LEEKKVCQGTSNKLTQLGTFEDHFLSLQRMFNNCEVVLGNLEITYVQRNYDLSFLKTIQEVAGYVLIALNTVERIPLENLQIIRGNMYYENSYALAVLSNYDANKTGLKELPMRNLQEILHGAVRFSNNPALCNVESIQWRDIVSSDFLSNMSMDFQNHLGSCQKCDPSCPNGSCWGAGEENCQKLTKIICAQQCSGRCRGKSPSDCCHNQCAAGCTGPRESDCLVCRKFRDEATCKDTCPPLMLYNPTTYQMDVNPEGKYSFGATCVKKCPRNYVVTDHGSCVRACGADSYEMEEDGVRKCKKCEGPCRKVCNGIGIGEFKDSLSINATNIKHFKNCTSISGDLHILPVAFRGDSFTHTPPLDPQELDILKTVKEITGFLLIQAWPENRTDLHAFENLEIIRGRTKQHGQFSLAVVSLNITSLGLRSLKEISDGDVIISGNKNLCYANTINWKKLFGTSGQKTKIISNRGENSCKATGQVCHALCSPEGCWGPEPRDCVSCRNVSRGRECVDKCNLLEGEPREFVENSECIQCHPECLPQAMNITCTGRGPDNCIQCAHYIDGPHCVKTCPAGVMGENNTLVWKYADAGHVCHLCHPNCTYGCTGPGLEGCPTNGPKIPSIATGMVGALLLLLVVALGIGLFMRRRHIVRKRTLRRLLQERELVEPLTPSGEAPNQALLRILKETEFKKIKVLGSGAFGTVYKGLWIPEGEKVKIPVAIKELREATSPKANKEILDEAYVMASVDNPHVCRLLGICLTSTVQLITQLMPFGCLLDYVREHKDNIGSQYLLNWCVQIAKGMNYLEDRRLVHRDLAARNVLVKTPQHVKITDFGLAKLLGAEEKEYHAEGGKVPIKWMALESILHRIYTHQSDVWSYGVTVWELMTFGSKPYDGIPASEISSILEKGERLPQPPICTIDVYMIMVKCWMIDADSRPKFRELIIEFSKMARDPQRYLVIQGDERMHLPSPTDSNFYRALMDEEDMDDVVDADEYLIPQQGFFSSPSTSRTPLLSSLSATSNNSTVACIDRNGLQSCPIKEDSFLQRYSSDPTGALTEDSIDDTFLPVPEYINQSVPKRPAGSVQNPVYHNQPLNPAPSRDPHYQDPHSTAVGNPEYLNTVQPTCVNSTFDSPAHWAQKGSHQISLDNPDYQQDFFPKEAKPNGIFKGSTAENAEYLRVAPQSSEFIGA
Summary of the method: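 Kinase preincubated with compound 10 min at room temperature, then reaction started with ATP plus substrate in 1x kinase buffer and run at room temperature. Substrate-to-product conversion read by mobility shift; % inhibition normalised to no-enzyme and no-compound controls, IC50 from variable-slope four-parameter fit.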

[3] = target: Ba/F3-FL-EGFR-Del19 (E746-A750) (Homo sapiens, UniProt P00533, DEL746-750, cells depend on it); experiment: CellTiter-Glo proliferation, Ba/F3-FL-EGFR-Del19; settings: read-out: Ba/F3-FL-EGFR-Del19 (E746-A750), 72 hours
[4] = Liver microsome stability test, mouse; assay type: in vitro ADME; settings: mouse liver microsomes 0.5 mg/ml, compound 1 μM, NADPH 1 mM, within 60 minutes
Method: The compounds of the present disclosure were subjected to a liver microsome stability test. The compounds to be tested were co-incubated with liver microsomes of different species with or without the addition of NADPH. The final concentration of the compounds to be tested in the test system was 1 μM. The final concentration of NADPH was 1 mM, and the final concentration of liver microsomes was 0.5 mg/ml.

[5] = target: Ba/F3-FL-EGFR-del19/T790M (Homo sapiens, UniProt P00533, DEL746-750/T790M, cells depend on it); experiment: CellTiter-Glo proliferation, Ba/F3-FL-EGFR-del19/T790M; settings: read-out: Ba/F3-FL-EGFR-del19/T790M IC50/nM, 72 hours

Chain of EGFR (L858R) (P00533 25-1210 L858R): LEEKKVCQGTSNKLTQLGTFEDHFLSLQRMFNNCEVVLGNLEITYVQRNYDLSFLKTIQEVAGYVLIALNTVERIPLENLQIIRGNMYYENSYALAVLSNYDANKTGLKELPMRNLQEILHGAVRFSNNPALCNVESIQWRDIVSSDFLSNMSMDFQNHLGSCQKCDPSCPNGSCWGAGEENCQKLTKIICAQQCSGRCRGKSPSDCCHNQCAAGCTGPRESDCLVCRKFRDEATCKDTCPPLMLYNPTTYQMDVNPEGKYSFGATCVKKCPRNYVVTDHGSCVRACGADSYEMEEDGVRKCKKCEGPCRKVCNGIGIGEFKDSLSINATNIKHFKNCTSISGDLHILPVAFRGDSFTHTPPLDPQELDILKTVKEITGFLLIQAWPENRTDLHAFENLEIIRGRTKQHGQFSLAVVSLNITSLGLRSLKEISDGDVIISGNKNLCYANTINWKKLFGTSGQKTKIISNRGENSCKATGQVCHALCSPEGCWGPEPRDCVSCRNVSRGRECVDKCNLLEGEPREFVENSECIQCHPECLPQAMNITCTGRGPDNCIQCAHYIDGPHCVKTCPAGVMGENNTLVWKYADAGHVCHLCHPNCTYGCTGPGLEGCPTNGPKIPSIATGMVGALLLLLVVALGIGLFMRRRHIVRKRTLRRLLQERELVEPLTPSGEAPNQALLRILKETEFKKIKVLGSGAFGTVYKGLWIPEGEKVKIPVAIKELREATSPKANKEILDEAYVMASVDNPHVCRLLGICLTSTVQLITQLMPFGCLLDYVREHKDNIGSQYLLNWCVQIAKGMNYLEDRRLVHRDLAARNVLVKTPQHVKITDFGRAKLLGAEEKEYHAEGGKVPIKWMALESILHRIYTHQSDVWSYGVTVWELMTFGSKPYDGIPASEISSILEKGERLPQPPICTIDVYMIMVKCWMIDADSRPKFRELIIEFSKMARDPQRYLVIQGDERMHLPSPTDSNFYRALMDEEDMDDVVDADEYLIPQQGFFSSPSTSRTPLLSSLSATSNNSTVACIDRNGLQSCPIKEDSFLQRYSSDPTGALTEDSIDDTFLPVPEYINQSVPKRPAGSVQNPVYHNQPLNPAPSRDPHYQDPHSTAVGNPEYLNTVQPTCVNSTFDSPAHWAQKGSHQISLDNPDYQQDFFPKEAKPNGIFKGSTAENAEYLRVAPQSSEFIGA

| IC50 (EGFR (L858R)) [nM] | GI50 [1] [nM] | GI50 [2] [nM] | GI50 (Ba/F3-FL-EGFR-L858R) [nM] | IC50 (EGFR (wild-type)) [nM] | GI50 [3] [nM] | CLint scaled at 1 μM [4] [mL/min/kg] | GI50 [5] [nM] | Compound |
| --- | --- | --- | --- | --- | --- | --- | --- | --- |
| 1.1 | 8.8 | 8.4 | 18 | 9.4 | 41 | 231 | 4.4 | CC(C)c1ccc(N2CC(N(C)S(C)(=O)=O)C2)c2cnc(Nc3ccnc(N4CC[C@@H](O)[C@@H](F)C4)n3)cc12 [Compound P39a] |
| 0.51 | 16 | 7.8 | 7.7 | 1.9 | 15 | 196 | 5.1 | CC(C)c1ccc(N2C[C@H](CS(C)(=O)=O)[C@H]2C)c2cnc(Nc3ccnc(-c4cnn(S(=O)(=O)C5CC5)c4)n3)cc12 [Compound H12] |
